# Laboratory results: US20180161383A1, “NATURAL PHARMACEUTICAL COMPOSITION FOR TREATING MENOPAUSAL MENTAL DEPRESSION AND ATYPICAL DEPRESSIVE DISORDER AND APPLICATION THEREOF” (SHAANXI TIANKUI BIOMEDICINE TECHNOLOGY LIMITED COMPANY, priority 2015, published 2018)
# Legend:
# Type in all cases: in vivo
# [1] = system: rats suffering from the menopausal depression; assay: open-field test of rats; set-up: After medication minus Before medication (Fecal weight) / Fecal weight: unit not given here; details: positive drug group, dose not given
# [2] = system: rats suffering from the menopausal depression; assay: open-field water drinking test of rats; details: positive drug group, dose not given
# [3] = system: adrenocorticotrophic hormone; assay: ELISA, content of adrenocorticotrophic hormone in serum of rats; details: rat serum, positive drug group, dose not given
# Method: (§1) drenching animals in sequence to put to death within 3 cycles, enabling the animals to have empty stomachs for 12 hours before putting to death, and performing intraperitoneal anesthesia with 3% of pentobarbital sodium at a dose of 0.1 ml/100 g; and taking 8 ml of whole blood in a centrifuge tube, centrifuging at a rate of 4000 r/min for 15 min, separating the serum after centrifuging, labeling, and separately filling and preserving in a refrigerator of −20° C.; 2) ELISA Determination Method is as Follows: Detection is performed according to description of an ELISA kit. Before use, all reagents are fully and uniformly mixed. Lots of bubbles should not be produced in liquid, so as to avoid generating a sample adding error due to addition of lots of bubbles during sample adding. The quantity of needed plates is determined according to a quantity of to-be-detected samples and the quantity of standard substances. […] However, since many samples need to be determined, single holes should be made according to actual conditions. […] A basic principle of enzyme-labeled immunoassay is as follows: an antibody connected onto a solid-phase carrier and an enzyme-labeled antibody are respectively bound to two antigenic determinants on a detected antigen molecule in the sample to form a solid-phase antibody-antigen-enzyme-labeled antibody immune complex. […]
# [4] = system: noradrenaline; assay: ELISA, content of noradrenaline in serum of rats; details: rat serum, positive drug group, dose not given
# Method: as §1
# [5] = system: 5-hydroxytryptamine; assay: ELISA, content of 5-hydroxytryptamine in serum of rats; details: rat serum, positive drug group, dose not given
# Method: as §1
# [6] = system: dopamine; assay: ELISA, content of dopamine in serum of rats; details: rat serum, positive drug group, dose not given
# Method: as §1
# [7] = system: cAMP; assay: ELISA, content of cAMP in serum of rats; details: rat serum, positive drug group, dose not given
# Method: as §1
# [8] = system: cGMP; assay: ELISA, content of cGMP in serum of rats; details: rat serum, positive drug group, dose not given
# Method: as §1
# [9] = system: oxytocin; assay: ELISA, content of oxytocin in serum of rats; details: rat serum, positive drug group, dose not given
# Method: as §1
# [10] = system: follicle-stimulating hormone; assay: ELISA, content of follicle-stimulating hormone in serum of rats; details: rat serum, positive drug group, dose not given
# Method: as §1
# [11] = system: estradiol; assay: ELISA, content of estradiol in serum of rats; details: rat serum, positive drug group, dose not given
# Method: as §1
# [12] = system: IL-6; assay: ELISA, content of IL-6 in serum of rats; details: rat serum, positive drug group, dose not given
# Method: as §1
# [13] = system: IL-2; assay: ELISA, content of IL-2 in serum of rats; details: rat serum, positive drug group, dose not given
# Method: as §1
# [14] = system: IL-8; assay: ELISA, content of IL-8 in serum of rats; details: rat serum, positive drug group, dose not given
# Method: as §1
compound,measurement,setting,value
"Fc1ccc([C@@H]2CCNC[C@H]2COc2ccc3c(c2)OCO3)cc1 [Paroxetine, paroxetine]",Fecal weight,[1]; rats after medication,0.14 ± 0.38
same,Horizontal scores,[1]; rats after medication,78.29 ± 28.18
same,Vertical scores,[1]; rats after medication,9.57 ± 4.68
same,After medication minus Before medication (Fecal weight),[1]; rats,−0.94 ± 0.71
same,After medication minus before medication (horizontal scores),[1]; rats,41.14 ± 28.54
same,Number of times approaching to water bottles,[2]; rats after medication,10.43 ± 5.09
same,Number of times standing,[2]; rats after medication,11.28 ± 4.23
same,Water drinking latent period,[2]; rats after medication,88.86 ± 20.05
same,Water drinking time,[2]; rats after medication,112.14 ± 50.83
same,After medication minus Before medication (Frequencies of approaching water bottles),[2]; rats,6.5742 ± 4.0443
same,After medication minus Before medication (Standing frequency),[2]; rats,7.5728 ± 4.5413
same,After medication minus Before medication (Water drinking time),[2]; rats,112.14 ± 50.83
same,After medication minus Medication (Water drinking latent period),[2]; rats,70.43 ± 35.65
same,ACTH,[3],16.3682 ± 1.8767 ng/L
same,NA,[4],32.5359 ± 5.6128 ng/L
same,5-HT,[5],42.9048 ± 6.2922 ng/L
same,DA,[6],7.6595 ± 1.3337 pg/L
same,cAMP,[7],2.7761 ± 0.3726 U/L
same,cGMP,[8],1.8333 ± 0.4686 U/L
same,OT,[9],4.1889 ± 0.8811 ng/L
same,FSH,[10],3.7068 ± 0.6242 IU/L
same,E2,[11],10.0566 ± 0.7140 ng/L
same,IL-6,[12],14.9800 ± 2.9183 ng/mL
same,IL-2,[13],341.853 ± 59.289 ng/L
same,IL-8,[14],196.479 ± 14.596 ng/L
